For four compounds, Ki results are on record in ChEMBL document CHEMBL3244329, “Nicotinamide adenine dinucleotide phosphate-decanaldehyde adduct as an inhibitor of beef brain NADP-linked aldehyde reductase” (J Med Chem, 1979).

For this test, the target named is Aldo-keto reductase family 1 member A1 (Bos taurus, UniProt Q3ZCJ2). Nature of the test: Inhibition of beef brain NADP-dependent aldehyde reductase using p-nitrobenzaldehyde by competitive inhibition assay.
Aldo-keto reductase family 1 member A1, sequence (Q3ZCJ2 2-325 limits assumed): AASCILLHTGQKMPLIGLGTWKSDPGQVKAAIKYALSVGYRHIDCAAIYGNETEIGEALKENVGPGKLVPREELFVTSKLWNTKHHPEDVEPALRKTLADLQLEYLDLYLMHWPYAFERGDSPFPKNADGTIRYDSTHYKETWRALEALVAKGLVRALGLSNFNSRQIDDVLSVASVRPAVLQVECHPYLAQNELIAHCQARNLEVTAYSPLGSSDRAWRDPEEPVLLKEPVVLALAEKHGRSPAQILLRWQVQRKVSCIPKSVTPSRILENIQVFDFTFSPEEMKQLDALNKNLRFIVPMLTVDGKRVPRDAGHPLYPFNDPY
In turn, `CCC1C(O)NC(=O)C2=CN([C@@H]3O[C@H](COP(=O)(O)O[C@H]4[C@@H](O)[C@H](n5cnc6c(N)ncnc65)O[C@@H]4COP(=O)(O)OP(=O)(O)O)[C@@H](O)[C@H]3O)C=C[C@H]21` (some centres undefined) registered a Ki of 13 µM. `Nc1ncnc2c1ncn2[C@@H]1O[C@H](COP(=O)(O)OP(=O)(O)O)[C@@H](OP(=O)(O)OC[C@H]2O[C@@H](N3C=C[C@@H]4C(=C3)C(=O)NC(O)C4Cc3ccccc3)[C@H](O)[C@@H]2O)[C@H]1O` (some centres undefined) had a Ki of 7 µM. In turn, `Nc1ncnc2c1ncn2[C@@H]1O[C@H](COP(=O)(O)OP(=O)(O)O)[C@@H](OP(=O)(O)OC[C@H]2O[C@@H](N3C=C[C@@H]4C(=C3)C(=O)NC(O)C4c3ccccc3)[C@H](O)[C@@H]2O)[C@H]1O` (some centres undefined) had a Ki of 5.1 µM. This Ki and that of the compound before are within 1.5-fold of each other. The compound `CCCCCCCCC1C(O)NC(=O)C2=CN([C@@H]3O[C@H](COP(=O)(O)O[C@H]4[C@@H](O)[C@H](n5cnc6c(N)ncnc65)O[C@@H]4COP(=O)(O)OP(=O)(O)O)[C@@H](O)[C@H]3O)C=C[C@H]21` (some centres undefined) gave a Ki of 2.3 µM.
